Results published in patent publication US20230190924A1, “ANTIGEN OF ALLERGY AND EPITOPE THEREOF” (HOYU CO., LTD., priority 2017, published 2023).

test system: IgE antibodies from patients; assay: Epitope mapping (2) overlapping (10-amino-acid peptides) and (3) alanine scanning on peptide arrays; assay type: binding, human; conditions: overlapping peptides with flanking sequence
Description: On the basis of the sequences (SEQ ID NOs: 272-295 for vitellogenin-2 precursor, SEQ ID NOs: 296-303 for vitellogenin-3, SEQ ID NOs: 304-311 for apolipoprotein B precursor, and SEQ ID NOs: 312-318 for vitellogenin-1 or lipovitellin-1) of the peptides bound to an IgE antibody in serum in a patient-specific manner as described above in (A), a library of overlapping peptide fragments (length: 10 amino acids) was prepared using the sequences of the peptides and sequences in which sequences were added so as to flank each peptide in the amino acid sequences of allergen components (amino acid sequences of SEQ ID NO: 59, 106 or 262 for vitellogenin-2 precursor, SEQ ID NO: 2, 13 or 47 for vitellogenin-3, SEQ ID NO: 152, 237 or 251 for apolipoprotein B, and SEQ ID NO: 18 for vitellogenin-1 or lipovitellin-1) comprising the sequences of the peptide to carry out epitope mapping.
The peptides to be synthesized were shifted by one amino acid.
The library was prepared by the same procedure as described above in (A), and the presence or absence of binding of an IgE antibody present in the serum of a patient and a non-egg-allergic subject to each peptide fragment was measured by the same technique as described above. Amino acids at positions where the binding activity against IgE antibodies from patients were lost or decreased in the peptides shifted by one amino acid while binding activity against IgE antibodies from non-egg-allergic subjects arose were confirmed as amino acids adversely affecting the specificity of binding to IgE antibodies.
Chemiluminescence intensity in images obtained by measurement was converted into a numeric value in the same manner as in (A) using ImageQuant TL (GE Healthcare). Numeric values determined from images obtained as a result of using only anti-human IgE antibody-HRP antibody without carrying out the procedures (2) and (3) described above in the subsection titled (3) Spotting of cellulose-bound peptide solution were […] numeric values determined from images obtained from results about the serum of 6 patients. It was determined that a peptide having the resulting value larger than 0 had no binding activity against IgE antibodies when having less than 20% of values obtained using the sequences (amino acid sequences of SEQ ID NO: 59, 106 or 262 for vitellogenin-2, SEQ ID NO: 2, 13 or 47 for vitellogenin-3, SEQ ID NO: 152, 237 or 251 for apolipoprotein B, and SEQ ID NO: 18 for vitellogenin-1 or lipovitellin-1) serving as the basis of overlapping, had binding activity, albeit poor, against IgE antibodies when having 20% or more and less than 50% thereof, had binding activity, albeit somewhat poor, against IgE antibodies when having 50% or more and less than 70% thereof, had almost equivalent binding activity against IgE antibodies when having 70% or more and less than 90% thereof, and had equivalent or good binding activity against IgE antibodies and thus had remaining binding activity against IgE antibodies when having 90% or more thereof.
From the amino acid sequences identified above in (A), a library of peptide fragments in which N-terminal amino acids were substituted one by one by alanine according to a technique called alanine scanning (Non Patent Literature 1) was prepared by the same technique as described above. The presence or absence of binding of an IgE antibody present in the serum of a patient and a non-egg-allergic subject to each peptide fragment was measured by the same technique as described above. Amino acids at positions where the binding activity against IgE antibodies from patients were lost or decreased by the substitution by alanine while binding activity against IgE antibodies from non-egg-allergic subjects arose were confirmed as amino acids important for exertion of original antigenicity, or amino acids influencing exertion of original antigenicity.

| binding to IgE antibodies from patients, sequence comprising a region amino-terminally adjacent to the epitope | binding to IgE antibodies from patients, sequence comprising a region carboxy-terminally adjacent to the epitope | Substance |
| --- | --- | --- |
| binding to IgE antibodies from patients | – | SEQ ID NO: 451: sequence comprising a region amino-terminally adjacent to epitope 17 (FVTNLTDSSK; epitope) |
| binding to IgE antibodies from patients | – | SEQ ID NO: 452: sequence comprising a region amino-terminally adjacent to epitope 17 (TNLTDSSKWK; epitope) |
| binding to IgE antibodies from patients | – | SEQ ID NO: 462: sequence comprising a region amino-terminally adjacent to epitope 19 (NKIKTFNE; epitope) |
| – | binding to IgE antibodies from patients | SEQ ID NO: 465: sequence comprising a region carboxy-terminally adjacent to epitope 19 (VKFNYSMPAN; epitope) |
| – | binding to IgE antibodies from patients | SEQ ID NO: 466: sequence comprising a region carboxy-terminally adjacent to epitope 19 (FNYSMPANCY; epitope) |
| binding to IgE antibodies from patients | – | SEQ ID NO: 471: sequence comprising a region amino-terminally adjacent to epitope 20 (GEATNLKAIN; epitope) |
| – | binding to IgE antibodies from patients | SEQ ID NO: 476: sequence comprising a region carboxy-terminally adjacent to epitope 20 (AINIKIGSHE; epitope) |
| binding to IgE antibodies from patients | – | SEQ ID NO: 479: sequence comprising a region amino-terminally adjacent to epitope 20 (KSAGEATNLK; epitope) |
| binding to IgE antibodies from patients | – | SEQ ID NO: 480: sequence comprising a region amino-terminally adjacent to epitope 20 (AGEATNLKAI; epitope) |
| – | binding to IgE antibodies from patients | SEQ ID NO: 487: sequence comprising a region carboxy-terminally adjacent to epitope 20 (NIKIGSHEI; epitope) |
| binding to IgE antibodies from patients | – | SEQ ID NO: 492: sequence comprising a region amino-terminally adjacent to epitope 21 (LAAPGHG; epitope) |
| – | binding to IgE antibodies from patients | SEQ ID NO: 495: sequence comprising a region carboxy-terminally adjacent to epitope 21 (YFDGKTITIQ; epitope) |
| binding to IgE antibodies from patients | – | SEQ ID NO: 497: sequence comprising a region amino-terminally adjacent to epitope 21 (GFALAAPGHG; epitope) |
| binding to IgE antibodies from patients | – | SEQ ID NO: 498: sequence comprising a region amino-terminally adjacent to epitope 21 (ALAAPGHGID; epitope) |
| binding to IgE antibodies from patients | – | SEQ ID NO: 503: sequence comprising a region amino-terminally adjacent to epitope 21 (GFALAAPGHG; epitope) |
| – | binding to IgE antibodies from patients | SEQ ID NO: 515: sequence comprising a region carboxy-terminally adjacent to epitope 22 (GYLAKNAVSF; epitope) |
| binding to IgE antibodies from patients | – | SEQ ID NO: 516: sequence comprising a region amino-terminally adjacent to epitope 23 (PCRGACKLH; epitope) |
| binding to IgE antibodies from patients | – | SEQ ID NO: 517: sequence comprising a region amino-terminally adjacent to epitope 23 (APCRGACKLH; epitope) |

same assay, conditions: procedures (B) overlapping and (C) alanine scanning

| region within the epitope important for binding to IgE antibodies from patients | Substance |
| --- | --- |
| important for binding | SEQ ID NO: 449: region in epitope 16 (RKLPGDRATS; epitope) |
| important for binding | SEQ ID NO: 455: region in epitope 17 (TDSSKWKLCA; epitope) |
| important for binding | SEQ ID NO: 458: region in epitope 17 (KWKLCADAS; epitope) |
| important for binding | SEQ ID NO: 461: region in epitope 19 (KIKTF; epitope) |
| important for binding | SEQ ID NO: 464: region in epitope 19 (FNEVKFNYSM; epitope) |
| important for binding | SEQ ID NO: 470: region in epitope 20 (EATNLKAIN; epitope) |
| important for binding | SEQ ID NO: 473: region in epitope 20 (INIKIGSH; epitope) |
| important for binding | SEQ ID NO: 482: region in epitope 20 (ATNLKAINI; epitope) |
| important for binding | SEQ ID NO: 483: region in epitope 20 (ATNLKAINIK; epitope) |
| important for binding | SEQ ID NO: 486: region in epitope 20 (KAINIKIGS; epitope) |
| important for binding | SEQ ID NO: 491: region in epitope 21 (AAPGHG; epitope) |
| important for binding | SEQ ID NO: 494: region in epitope 21 (DKLYFD; epitope) |
| important for binding | SEQ ID NO: 500: region in epitope 21 (DKLYFDG; epitope) |
| important for binding | SEQ ID NO: 505: region in epitope 21 (AAPGHGID; epitope) |
| important for binding | SEQ ID NO: 507: region in epitope 21 (PGHGIDKLYF; epitope) |
| important for binding | SEQ ID NO: 509: region in epitope 21 (DKLYFDGKT; epitope) |
| important for binding | SEQ ID NO: 512: region in epitope 22 (MPNGYLAKNA; epitope) |
| important for binding | SEQ ID NO: 520: region in epitope 23 (ACKLHRSFVK; epitope) |
| important for binding | SEQ ID NO: 522: region in epitope 23 (RSFVKLE; epitope) |
